Measured values published in paper PMC7356968, “Key-Protease Inhibition Regimens Promote Tumor Targeting of Neurotensin Radioligands” (Pharmaceutics, 2020).

Tested on: WiDr cells expressing the human NTS1R
Test: Cell uptake / internalization assay in WiDr cells
Format: cell-based
Conditions: confluent WiDr cells, 1 h, 37 °C, 250 fmol peptide, non-specific (1 μM NT) subtracted, average ± sd of 3 experiments in triplicate; for internalized fraction vs total added activity: acid wash then lysis
Protocol: Human colorectal adenocarcinoma WiDr cells (LGC Promochem, Teddington, UK) expressing the human NTS1R [52] were cultured in McCoy’s GLUTAMAX-I (Gibco BRL, Life Technologies, Grand Island, NY, USA) supplemented by 10% (v/v) fetal bovine serum (FBS), 100 U/mL penicillin and 100 μg/mL streptomycin (all from Biochrom KG Seromed, Berlin, Germany). Cells were kept in a controlled humidified atmosphere containing 5% CO2 at 37 °C. Passages were performed every 4–5 days using a trypsin/EDTA (0.05%/0.02% w/v) solution. The overall cell association–internalization of ^99mTc-DT1, ^99mTc-DT5 and ^99mTc-DT6 was assessed in confluent WiDr cells. Briefly, the cells were seeded in six-well plates (~1 × 10^6 cells per well) 24 h before the experiment. Each of ^99mTc-DT1, ^99mTc-DT5 and ^99mTc-DT6 (approximately 150,000 cpm, 250 fmol total peptide in 150 μL of 0.5% BSA/PBS) was added alone (total) or in the presence of 1 μM NT (non-specific). Cells were incubated at 37 °C for 1 h and incubation was interrupted by placing the plates on ice, removing the supernatants and rapid rinsing with ice-cold 0.5% BSA/PBS. Cells were then treated 2 × 5 min with acid wash buffer (2 × 0.6 mL, 50 mM glycine buffer, pH 2.8, 0.1 M NaCl) at room temperature and supernatants were collected (membrane-bound fraction). After rinsing with 1 mL chilled 0.5% BSA/PBS, cells were lyzed by treatment with 1 N NaOH (2 × 0.6 mL) and lysates were collected (internalized fraction). Sample radioactivity was measured in the γ-counter (an automated well-type gamma counter with a NaI(Tl) 3′′ crystal, Canberra Packard Auto-Gamma 5000 series instrument) and total cell-associated (internalized + membrane bound) radioactivity was determined vs. total added activity. Results represent the average values ± sd of 3 experiments in triplicate.

Substance | internalized fraction vs total added activity [%] | NTS1R-specific cell uptake (internalized + membrane bound) vs total added activity [%]
N4-βAla-Arg-Dab-Pro-Tyr-Tle-Leu-OH [^99mTc-DT6, ^99mTc-[N4-βAla^7,Dab^9,Tle^12]]NT(7-13), ^99mTc-labeled acyclic tetraamine-coupled NT(7-13) analog DT6] | 0.8 ± 0.4 | 1.0 ± 0.4
N4-Gly-Arg-Arg-Pro-Tyr-Ile-Leu-OH [^99mTc-DT1, ^99mTc-[N4-Gly^7]NT(7-13), ^99mTc-labeled acyclic tetraamine-coupled NT(7-13) analog DT1] | 6.9 ± 2.1 | 10.1 ± 2.3
N4-βAla-Arg-Dab-Pro-Tyr-Ile-Leu-OH [^99mTc-DT5, ^99mTc-[N4-βAla^7,Dab^9]NT(7-13), ^99mTc-labeled acyclic tetraamine-coupled NT(7-13) analog DT5] | 3.2 ± 0.3 | 3.7 ± 0.3
